Data set [1] can be described thus: Oral bioavailability in ICR mouse at 2 mg/kg measured after 0.0833 to 120 hrs by LC-MS-MS analysis. The settings on record: in vivo. Type of data set: ADME, organism-based.
The nature of data set [2]: Clearance in ICR mouse at 0.5 mg/kg, iv measured after 0.0833 to 120 hrs by LC-MS-MS analysis. Type of data set: ADME, organism-based. The settings on record: in vivo.
Data set [3] in a line: Volume of distribution at steady state in ICR mouse at 0.5 mg/kg, iv measured after 0.0833 to 120 hrs by LC-MS-MS analysis. The settings on record: in vivo, read-out: Vdss. Type of data set: ADME, organism-based.
The nature of data set [4]: Half life in ICR mouse at 2 mg/kg, po measured after 0.0833 to 120 hrs by LC-MS-MS analysis. The data set is classed as ADME, organism-based. The settings on record: in vivo.
Data set [5] can be described thus: AUC (0 to t) in ICR mouse at 2 mg/kg, po measured after 0.0833 to 120 hrs by LC-MS-MS analysis. The data set is classed as ADME, organism-based. Also noted: time upper 120 hr, time lower 0.083 hr, dose 2 mg/kg, route oral. The settings on record: in vivo.
The nature of data set [6]: Intrinsic clearance in mouse liver microsomes at 0.5 uM incubated for 0.5 to 60 mins by LC-MS/MS analysis. The settings on record: read-out: CLH. The data set is classed as ADME, Microsome.
The nature of data set [7]: Cmax in ICR mouse at 2 mg/kg, po measured after 0.0833 to 120 hrs by LC-MS-MS analysis. The data set is classed as ADME, organism-based. Also noted: dose 2 mg/kg, route oral. The settings on record: in vivo.
Data set [8] is described as follows: Half life in ICR mouse at 0.5 mg/kg, iv measured after 0.0833 to 120 hrs by LC-MS-MS analysis. The data set is classed as ADME, organism-based. The settings on record: in vivo.
For data set [9], the system named is Mus musculus. In words: Antidiabetic activity in ob/ob mouse assessed as reduction in decrease in HbA1c level at 30 mg/kg, po dosed once every three days for 31 day relative to control. Type of data set: functional. Also on record: scale not given: the % may be the effect or the level left.
In data set [10] the target is Dipeptidyl peptidase 4 (Mus musculus) (UniProt P28843). In words: Ex-vivo inhibition of DPP4 in plasma isolated from ob/ob mouse assessed as time duration during which DPP4 inhibition rate stays above 80% treated at 30 mg/kg, po measured after 2 to 72 hrs by fluorescence based assay. The data set is classed as functional, organism-based.
Data set [11] has the same target. In words: Ex-vivo inhibition of DPP4 in plasma isolated from ob/ob mouse treated at 30 mg/kg, po measured after 2 to 72 hrs by fluorescence based assay. Type of data set: functional, organism-based.
Data set [12] can be described thus: Toxicity in ob/ob mouse assessed as induction of body weight gain at 30 mg/kg, po dosed once every three days for 31 days. The data set is classed as organism-based. The settings on record: in vivo, 744 h.
The test system of data set [13] is Mus musculus. The experiment in a line: Antidiabetic activity in ob/ob mouse assessed as reduction in random blood glucose levels at 30 mg/kg, po dosed once every three days for 31 days. The data set is classed as functional, organism-based.
Data set [14] has as its system Mus musculus. In words: Antidiabetic activity in ob/ob mouse assessed as reduction in decrease in HbA1c level at 3 to 30 mg/kg, po dosed once every three days for 31 day. The data set is classed as functional, organism-based.

Broadly, the clearance is the rate of elimination divided by the concentration. Usually half-life stands for how long it takes for the measured level to halve. In general, AUC(0-t) refers to the area under the concentration-time curve up to a stated or last time point. As a reminder, the Cmax is the peak of the concentration-time curve.

Each structure is given as a SMILES string. Active and inactive are the calls of the source. The rule behind the calls is not given here.

Dipeptidyl peptidase 4 (Mus musculus), sequence (P28843 whole entry, looked up): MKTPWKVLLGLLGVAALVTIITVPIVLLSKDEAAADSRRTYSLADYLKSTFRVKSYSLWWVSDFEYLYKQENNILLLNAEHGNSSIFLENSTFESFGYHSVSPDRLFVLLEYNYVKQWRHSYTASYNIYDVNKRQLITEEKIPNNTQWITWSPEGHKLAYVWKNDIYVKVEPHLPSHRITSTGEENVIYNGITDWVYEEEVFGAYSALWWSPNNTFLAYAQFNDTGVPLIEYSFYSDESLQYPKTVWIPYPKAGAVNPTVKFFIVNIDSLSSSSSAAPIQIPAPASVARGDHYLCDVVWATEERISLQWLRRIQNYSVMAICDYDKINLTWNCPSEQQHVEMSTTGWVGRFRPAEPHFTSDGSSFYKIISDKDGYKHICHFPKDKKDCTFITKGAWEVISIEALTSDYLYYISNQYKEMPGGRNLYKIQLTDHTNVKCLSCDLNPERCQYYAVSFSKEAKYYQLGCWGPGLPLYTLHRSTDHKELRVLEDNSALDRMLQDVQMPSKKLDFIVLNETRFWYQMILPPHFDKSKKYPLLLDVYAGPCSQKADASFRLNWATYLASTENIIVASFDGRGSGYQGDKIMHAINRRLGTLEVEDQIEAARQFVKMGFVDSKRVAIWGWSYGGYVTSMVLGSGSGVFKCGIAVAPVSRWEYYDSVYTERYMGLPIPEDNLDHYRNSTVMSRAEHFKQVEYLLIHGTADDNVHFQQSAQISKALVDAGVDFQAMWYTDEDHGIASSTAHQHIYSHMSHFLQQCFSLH

In the case of `CS(=O)(=O)n1cc2c(n1)CN([C@H]1CO[C@H](c3cc(F)ccc3F)[C@@H](N)[C@H]1F)C2`, in data set [1], the bioavailability is 45.4%. The same compound returned a clearance in [2] of 0.645 mL/min/kg. Besides, the Vd in data set [3] was 0.957 L/kg. Also, the figures for the half-life in [4] and in [8] were 19.2 h and 20.9 h, respectively. For the same compound, the AUC(0-t) in [5] came out at 23500 ng·h/mL. Besides, the microsomal CLint at 0.5 µM in data set [6] was determined as 1.2 µL/min/mg. The compound further came in with a Cmax in data set [7] of 1580 ng/mL.
Regarding `CS(=O)(=O)n1cc2c(n1)CN([C@@H]1C[C@H](N)[C@@H](c3cc(F)c(F)cc3F)O[C@@H]1C(F)(F)F)C2`, the bioavailability in data set [1] was determined as 114%. The clearance in data set [2] was determined as 1.44 mL/min/kg. The Vd in data set [3] worked out at 2.27 L/kg. Further, the figures for the half-life in data set [4] and in data set [8] were 20 h and 19.7 h, respectively. This compound returned an AUC(0-t) in data set [5] of 26500 ng·h/mL. In data set [6], the microsomal CLint at 0.5 µM was 1.17 µL/min/mg. This compound also had a Cmax in data set [7] of 999 ng/mL.
For `CS(=O)(=O)n1cc2c(n1)CN([C@H]1CO[C@H](c3cc(F)ccc3F)[C@@H](N)C1)C2` [OMARIGLIPTIN], in [1], the bioavailability was 95%. Also, the Activity was 13.6% in the data set with Mus musculus [9] and “Toxic” in data set [12]. Moreover, in data set [2], the clearance came to 7.39 mL/min/kg. Moreover, the Vd in data set [3] came out at 1.65 L/kg. In addition, the TIME in data set [10] stood at 18 h. In addition, the inhibition result in [11] was “Active”. Further, the half-life in data set [4] was 4.65 h; in data set [8], 3.05 h. The outcome in the data set on Mus musculus [13] and in the data set with Mus musculus [14] was Active. For the same compound, in [5], the AUC(0-t) amounted to 4100 ng·h/mL. The microsomal CLint at 0.5 µM in data set [6] was 1.89 µL/min/mg. Also, in [7], the highest level (Cmax) was 798 ng/mL.

Source of the values: ChEMBL document CHEMBL4613324, “Design, Synthesis, and Evaluation of a Series of Novel Super Long-Acting DPP-4 Inhibitors for the Treatment of Type 2 Diabetes” (J Med Chem, 2020).
